Results from patent US6339042B1, “Herbicidal N-cyclohexadienyl heteroaryloxyacetamides” (American Cyanamid Co., priority 1999, dated 2002).

Assays:
Conditions in all cases: three weeks after treatment
Apera spica venti [1] = assay: Post-emergence herbicidal evaluation, APESV
Setaria viridis [2] = assay: Pre-emergence herbicidal evaluation, SETVI; assay type: in vivo
Source text: (§1) The treated pots are then placed on greenhouse benches, watered and cared for in accordance with conventional greenhouse procedures.

Amaranthus tuberculatus [3] = assay: Post-emergence herbicidal evaluation, AMATA; assay type: in vivo
Oryza sativum [4] = assay: Post-emergence herbicidal evaluation, ORYSA
Lolium perenne [5] = assay: Post-emergence herbicidal evaluation, LOLPE
Echinochloa crus-galli [6] = assay: Post-emergence herbicidal evaluation, ECHCG
Lolium perenne [7] = assay: Pre-emergence herbicidal evaluation, LOLPE; assay type: in vivo
Source text: as §1

Echinochloa crus-galli [8] = assay: Pre-emergence herbicidal evaluation, ECHCG; assay type: in vivo
Source text: as §1

Zea mays [9] = assay: Post-emergence herbicidal evaluation, ZEAMX
Method: (§2) Each pot is examined three weeks after treatment and phytotoxicity is assessed according to the rating system set forth below.
(§3) These acetone solutions are diluted with water and the resulting formulations applied at dosage levels equivalent of about 0.4 to 0.1 kg per hectare of test compound per pot. After spraying the plants are placed on greenhouse benches and are cared for in the usual manner, commensurate with conventional greenhouse practices.

Galium aparine = assay: Post-emergence herbicidal evaluation, GALAP
Glycine max [10] = assay: Pre-emergence herbicidal evaluation, GLXMA; assay type: in vivo
Source text: as §1

Triticum aestivum [11] = assay: Pre-emergence herbicidal evaluation, TRZAW; assay type: in vivo
Source text: as §1

Zea mays [12] = assay: Pre-emergence herbicidal evaluation, ZEAMX; assay type: in vivo
Source text: as §1

Triticum aestivum [13] = assay: Post-emergence herbicidal evaluation, TRZAW
Amaranthus tuberculatus [14] = assay: Pre-emergence herbicidal evaluation, AMATA; assay type: in vivo
Source text: as §1

Alopecurus myosuroides [15] = assay: Pre-emergence herbicidal evaluation, ALOMY; assay type: in vivo
Source text: as §1

Hordeum vulgare [16] = assay: Post-emergence herbicidal evaluation, HORVW
Glycine max [17] = assay: Post-emergence herbicidal evaluation, GLXMA
Method: as §2, §3

Hordeum vulgare [18] = assay: Pre-emergence herbicidal evaluation, HORVW; assay type: in vivo
Source text: as §1

Alopecurus myosuroides [19] = assay: Post-emergence herbicidal evaluation, ALOMY
Setaria viridis [20] = assay: Post-emergence herbicidal evaluation, SETVI
Oryza sativum [21] = assay: Pre-emergence herbicidal evaluation, ORYSA; assay type: in vivo
Source text: as §1

Apera spica venti [22] = assay: Pre-emergence herbicidal evaluation, APESV; assay type: in vivo
Source text: as §1

**Q.** `CC1=CC(N(C)C(=O)COc2nnc(C(F)(F)C(F)(F)F)s2)=CC(C)(C)C1` [Example 7] was tested. Which “phytotoxicity rating APESV” value (Apera spica venti [1]; 0.100 kg/ha) did it give?
**A.** 0 (0 - No effect)

**Q.** What about the “phytotoxicity rating APESV” value (Apera spica venti [1]; 0.200 kg/ha) of the same compound?
**A.** 0 (0 - No effect)

**Q.** And the “phytotoxicity rating APESV” value (Apera spica venti [1]; 0.400 kg/ha)?
**A.** 2 (2 - Slight effect)

**Q.** What about the “phytotoxicity rating SETVI” value (Setaria viridis [2]; 0.100 kg/ha) of the same compound?
**A.** 0 (0 - No effect)

**Q.** What about the “phytotoxicity rating SETVI” value (Setaria viridis [2]; 0.200 kg/ha) of the same compound?
**A.** 0 (0 - No effect)

**Q.** And the “phytotoxicity rating SETVI” value (Setaria viridis [2]; 0.400 kg/ha)?
**A.** 0 (0 - No effect)

**Q.** And the “phytotoxicity rating SETVI” value (Setaria viridis [2]; 0.800 kg/ha)?
**A.** 2 (2 - Slight effect)

**Q.** What about the “phytotoxicity rating AMATA” value (Amaranthus tuberculatus [3]; 0.100 kg/ha) of the same compound?
**A.** 3 (3 - Moderate effect)

**Q.** And the “phytotoxicity rating AMATA” value (Amaranthus tuberculatus [3]; 0.200 kg/ha)?
**A.** 3 (3 - Moderate effect)

**Q.** And the “phytotoxicity rating AMATA” value (Amaranthus tuberculatus [3]; 0.400 kg/ha)?
**A.** 5 (5 - Definite injury)

**Q.** What about the “phytotoxicity rating ORYSA” value (Oryza sativum [4]; 0.100 kg/ha) of the same compound?
**A.** 0 (0 - No effect)

**Q.** And the “phytotoxicity rating ORYSA” value (Oryza sativum [4]; 0.200 kg/ha)?
**A.** 0 (0 - No effect)

**Q.** What about the “phytotoxicity rating ORYSA” value (Oryza sativum [4]; 0.400 kg/ha) of the same compound?
**A.** 3 (3 - Moderate effect)

**Q.** And the “phytotoxicity rating LOLPE” value (Lolium perenne [5]; 0.100 kg/ha)?
**A.** 0 (0 - No effect)

**Q.** What about the “phytotoxicity rating LOLPE” value (Lolium perenne [5]; 0.200 kg/ha) of the same compound?
**A.** 6 (6 - Herbicidal effect)

**Q.** And the “phytotoxicity rating LOLPE” value (Lolium perenne [5]; 0.400 kg/ha)?
**A.** 6 (6 - Herbicidal effect)

**Q.** And the “phytotoxicity rating ECHCG” value (Echinochloa crus-galli [6]; 0.100 kg/ha)?
**A.** 0 (0 - No effect)

**Q.** And the “phytotoxicity rating ECHCG” value (Echinochloa crus-galli [6]; 0.200 kg/ha)?
**A.** 0 (0 - No effect)

**Q.** And the “phytotoxicity rating ECHCG” value (Echinochloa crus-galli [6]; 0.400 kg/ha)?
**A.** 0 (0 - No effect)

**Q.** And the “phytotoxicity rating LOLPE” value (Lolium perenne [7]; 0.100 kg/ha)?
**A.** 0 (0 - No effect)

**Q.** And the “phytotoxicity rating LOLPE” value (Lolium perenne [7]; 0.200 kg/ha)?
**A.** 0 (0 - No effect)

**Q.** What about the “phytotoxicity rating LOLPE” value (Lolium perenne [7]; 0.400 kg/ha) of the same compound?
**A.** 3 (3 - Moderate effect)

**Q.** What about the “phytotoxicity rating LOLPE” value (Lolium perenne [7]; 0.800 kg/ha) of the same compound?
**A.** 9 (9 - Complete kill)

**Q.** What about the “phytotoxicity rating ECHCG” value (Echinochloa crus-galli [8]; 0.100 kg/ha) of the same compound?
**A.** 0 (0 - No effect)

**Q.** And the “phytotoxicity rating ECHCG” value (Echinochloa crus-galli [8]; 0.200 kg/ha)?
**A.** 0 (0 - No effect)

**Q.** What about the “phytotoxicity rating ECHCG” value (Echinochloa crus-galli [8]; 0.400 kg/ha) of the same compound?
**A.** 6 (6 - Herbicidal effect)

**Q.** And the “phytotoxicity rating ECHCG” value (Echinochloa crus-galli [8]; 0.800 kg/ha)?
**A.** 9 (9 - Complete kill)

**Q.** And the “phytotoxicity rating ZEAMX” value (Zea mays [9]; 0.100 kg/ha)?
**A.** 0 (0 - No effect)

**Q.** What about the “phytotoxicity rating ZEAMX” value (Zea mays [9]; 0.200 kg/ha) of the same compound?
**A.** 0 (0 - No effect)

**Q.** And the “phytotoxicity rating ZEAMX” value (Zea mays [9]; 0.400 kg/ha)?
**A.** 0 (0 - No effect)

**Q.** What about the “phytotoxicity rating GALAP” value (Galium aparine; 0.100 kg/ha) of the same compound?
**A.** 0 (0 - No effect)

**Q.** And the “phytotoxicity rating GALAP” value (Galium aparine; 0.200 kg/ha)?
**A.** 3 (3 - Moderate effect)

**Q.** What about the “phytotoxicity rating GALAP” value (Galium aparine; 0.400 kg/ha) of the same compound?
**A.** 5 (5 - Definite injury)

**Q.** And the “phytotoxicity rating GLXMA” value (Glycine max [10]; 0.100 kg/ha)?
**A.** 0 (0 - No effect)

**Q.** What about the “phytotoxicity rating GLXMA” value (Glycine max [10]; 0.200 kg/ha) of the same compound?
**A.** 0 (0 - No effect)

**Q.** And the “phytotoxicity rating GLXMA” value (Glycine max [10]; 0.400 kg/ha)?
**A.** 0 (0 - No effect)

**Q.** What about the “phytotoxicity rating GLXMA” value (Glycine max [10]; 0.800 kg/ha) of the same compound?
**A.** 0 (0 - No effect)

**Q.** What about the “phytotoxicity rating TRZAW” value (Triticum aestivum [11]; 0.100 kg/ha) of the same compound?
**A.** 0 (0 - No effect)

**Q.** What about the “phytotoxicity rating TRZAW” value (Triticum aestivum [11]; 0.200 kg/ha) of the same compound?
**A.** 0 (0 - No effect)

**Q.** And the “phytotoxicity rating TRZAW” value (Triticum aestivum [11]; 0.400 kg/ha)?
**A.** 0 (0 - No effect)

**Q.** And the “phytotoxicity rating TRZAW” value (Triticum aestivum [11]; 0.800 kg/ha)?
**A.** 0 (0 - No effect)

**Q.** What about the “phytotoxicity rating ZEAMX” value (Zea mays [12]; 0.100 kg/ha) of the same compound?
**A.** 0 (0 - No effect)

**Q.** And the “phytotoxicity rating ZEAMX” value (Zea mays [12]; 0.200 kg/ha)?
**A.** 0 (0 - No effect)

**Q.** And the “phytotoxicity rating ZEAMX” value (Zea mays [12]; 0.400 kg/ha)?
**A.** 0 (0 - No effect)

**Q.** And the “phytotoxicity rating ZEAMX” value (Zea mays [12]; 0.800 kg/ha)?
**A.** 1 (1 - Trace effect)

**Q.** And the “phytotoxicity rating TRZAW” value (Triticum aestivum [13]; 0.100 kg/ha)?
**A.** 0 (0 - No effect)

**Q.** What about the “phytotoxicity rating TRZAW” value (Triticum aestivum [13]; 0.200 kg/ha) of the same compound?
**A.** 0 (0 - No effect)

**Q.** What about the “phytotoxicity rating TRZAW” value (Triticum aestivum [13]; 0.400 kg/ha) of the same compound?
**A.** 0 (0 - No effect)

**Q.** What about the “phytotoxicity rating AMATA” value (Amaranthus tuberculatus [14]; 0.100 kg/ha) of the same compound?
**A.** 0 (0 - No effect)

**Q.** And the “phytotoxicity rating AMATA” value (Amaranthus tuberculatus [14]; 0.200 kg/ha)?
**A.** 0 (0 - No effect)

**Q.** And the “phytotoxicity rating AMATA” value (Amaranthus tuberculatus [14]; 0.400 kg/ha)?
**A.** 3 (3 - Moderate effect)

**Q.** And the “phytotoxicity rating AMATA” value (Amaranthus tuberculatus [14]; 0.800 kg/ha)?
**A.** 3 (3 - Moderate effect)

**Q.** What about the “phytotoxicity rating ALOMY” value (Alopecurus myosuroides [15]; 0.100 kg/ha) of the same compound?
**A.** 0 (0 - No effect)

**Q.** And the “phytotoxicity rating ALOMY” value (Alopecurus myosuroides [15]; 0.200 kg/ha)?
**A.** 2 (2 - Slight effect)

**Q.** What about the “phytotoxicity rating ALOMY” value (Alopecurus myosuroides [15]; 0.400 kg/ha) of the same compound?
**A.** 5 (5 - Definite injury)

**Q.** And the “phytotoxicity rating ALOMY” value (Alopecurus myosuroides [15]; 0.800 kg/ha)?
**A.** 5 (5 - Definite injury)

**Q.** And the “phytotoxicity rating HORVW” value (Hordeum vulgare [16]; 0.100 kg/ha)?
**A.** 0 (0 - No effect)

**Q.** What about the “phytotoxicity rating HORVW” value (Hordeum vulgare [16]; 0.200 kg/ha) of the same compound?
**A.** 0 (0 - No effect)

**Q.** What about the “phytotoxicity rating HORVW” value (Hordeum vulgare [16]; 0.400 kg/ha) of the same compound?
**A.** 0 (0 - No effect)

**Q.** And the “phytotoxicity rating GLXMA” value (Glycine max [17]; 0.100 kg/ha)?
**A.** 2 (2 - Slight effect)

**Q.** What about the “phytotoxicity rating GLXMA” value (Glycine max [17]; 0.200 kg/ha) of the same compound?
**A.** 2 (2 - Slight effect)

**Q.** What about the “phytotoxicity rating GLXMA” value (Glycine max [17]; 0.400 kg/ha) of the same compound?
**A.** 5 (5 - Definite injury)

**Q.** What about the “phytotoxicity rating HORVW” value (Hordeum vulgare [18]; 0.100 kg/ha) of the same compound?
**A.** 0 (0 - No effect)

**Q.** And the “phytotoxicity rating HORVW” value (Hordeum vulgare [18]; 0.200 kg/ha)?
**A.** 0 (0 - No effect)

**Q.** What about the “phytotoxicity rating HORVW” value (Hordeum vulgare [18]; 0.400 kg/ha) of the same compound?
**A.** 1 (1 - Trace effect)

**Q.** And the “phytotoxicity rating HORVW” value (Hordeum vulgare [18]; 0.800 kg/ha)?
**A.** 1 (1 - Trace effect)

**Q.** What about the “phytotoxicity rating ALOMY” value (Alopecurus myosuroides [19]; 0.100 kg/ha) of the same compound?
**A.** 0 (0 - No effect)

**Q.** What about the “phytotoxicity rating ALOMY” value (Alopecurus myosuroides [19]; 0.200 kg/ha) of the same compound?
**A.** 0 (0 - No effect)

**Q.** And the “phytotoxicity rating ALOMY” value (Alopecurus myosuroides [19]; 0.400 kg/ha)?
**A.** 4 (4 - Injury)

**Q.** And the “phytotoxicity rating SETVI” value (Setaria viridis [20]; 0.100 kg/ha)?
**A.** 0 (0 - No effect)

**Q.** What about the “phytotoxicity rating SETVI” value (Setaria viridis [20]; 0.200 kg/ha) of the same compound?
**A.** 0 (0 - No effect)

**Q.** And the “phytotoxicity rating SETVI” value (Setaria viridis [20]; 0.400 kg/ha)?
**A.** 0 (0 - No effect)

**Q.** And the “phytotoxicity rating ORYSA” value (Oryza sativum [21]; 0.100 kg/ha)?
**A.** 0 (0 - No effect)

**Q.** And the “phytotoxicity rating ORYSA” value (Oryza sativum [21]; 0.200 kg/ha)?
**A.** 0 (0 - No effect)

**Q.** What about the “phytotoxicity rating ORYSA” value (Oryza sativum [21]; 0.400 kg/ha) of the same compound?
**A.** 0 (0 - No effect)

**Q.** And the “phytotoxicity rating ORYSA” value (Oryza sativum [21]; 0.800 kg/ha)?
**A.** 2 (2 - Slight effect)

**Q.** And the “phytotoxicity rating APESV” value (Apera spica venti [22]; 0.200 kg/ha)?
**A.** 0 (0 - No effect)

**Q.** What about the “phytotoxicity rating APESV” value (Apera spica venti [22]; 0.400 kg/ha) of the same compound?
**A.** 0 (0 - No effect)

**Q.** What about the “phytotoxicity rating APESV” value (Apera spica venti [22]; 0.800 kg/ha) of the same compound?
**A.** 7 (7 - Good herbicidal effect)
